Data on 21 compounds can be found in patent publication US20230416238A1, “N-[(1,3-BENZOXAZOL-2-YL)-HETEROCYCLE]AMIDE DERIVATIVES FOR THE TREATMENT AND PROPHYLAXIS OF HEPATITIS B VIRUS INFECTION” (Hoffmann-La Roche Inc., priority 2020, published 2023).

pIC50: −log10 of the molar value.

Common to all, as to assay type: cell-based
In one data set the test system is HBsAg. The data set is described as follows: PHH HBV natural infection assay, HBsAg (alphalisa). Conditions: Hepatitis B virus, Hepatocyte, read-out: HBsAg IC50. As to the method:
(§1) Detailed procedures regarding primary human hepatocyte (PHH) HBV natural infection assay are described as below. One tube of frozen PHH (10 million cells) is thawed in 37° C. water bath and then transferred to 20 mL of PHH thawing medium (Sigma, InVitroGRO HT Medium, Cat. S03319) with gently mixing. The cells were then centrifuged at […] for 5 min, the supernatant was discarded and the tube was refilled with 25 mL of PHH plating medium (Sigma, InVitroGRO CP Medium, Cat. S03317). The tube was shaken very gently to re-suspend all cells, and then 50 μL of cells were transferred to each well 384-well collagen I coated plate with appropriate liquid handling equipment, e.g. Integra VIAFLO384 or Agilent Bravo. The cells were then cultured for 24 hours in a cell incubator. For HBV infection, after PHH attachment on the culture plate, the plating medium was removed and replenished with PHH culture medium containing HBV virus. The PHH culture medium was prepared with Dulbecco's Modified Eagle Medium (DMEM)/F12 (1:1 in volume ratio) containing 10% fetal bovine serum (Gibco, Cat. 10099141), 5 ng/mL human epidermal growth factor (Gibco, Cat. PHG0311L), 20 ng/mL dexamethasone (Sigma, Cat. D4902-100 mg), 250 ng/mL human recombinant insulin (Gibco, Cat. 41400045) and 100 U/mL penicillin. HBV virus at 200 genome equivalent (GE) per cell with 4% PEG8000 (Sigma, Cat. P1458) containing culture medium were added to the PHH culture medium for infection. The cells were then cultured for 24 hours in cell incubator. Then the cell culture supernatant was removed. The HBV-infected PHH were cultured with sandwich culture method with MEI culture medium containing 1% DMSO and 0.25 mg/mL matrix gel for 72 hours. The supernatant was then refreshed with PHH culture medium containing different concentrations of testing compounds for two times with 72-hour interval. At the end of treatment, the supernatant was collected for viral markers measurements, including HBsAg, HBeAg, HBV DNA and cytotoxicity. HBsAg and HBeAg were detected using alphalisa method using their specific antibodies. For HBV DNA detection, HBV DNA Quantitative Fluorescence Diagnostic Kit (Sansure Biotech Inc.) was used following the manufacture's protocol. Cytotoxicity was determined using Cell Counting Kit-8 (CCK8, Dojindo Molecular Technologies, Inc.).
(§2) The compounds of the present invention were tested for their capacity to inhibit HBsAg and HBeAg as described herein.

For the next data set, the system named is HBeAg. Kind of data set: PHH HBV natural infection assay, HBeAg (alphalisa). Conditions: Hepatitis B virus, Hepatocyte, read-out: HBeAg IC50. As to the method: as §1, §2
(In general: Bead proximity is the source of the signal in Alpha formats.)

The nature of data set [1]: Cytotoxicity in PHH natural infection assay (Cell Counting Kit-8). Conditions: HBV-infected primary human hepatocytes, CCK8. The procedure:
as §1
(In general: Formazan colour is commonly taken as a measure of viable cells.)

Take `O=C(NC1CC2(C1)CN(c1nc3cc(Cl)ccc3o1)C2)c1ccc(S(=O)(=O)C2CC2)o1` [Example 44, N-[2-(5-chloro-1,3-benzoxazol-2-yl)-2-azaspiro[3.3]heptan-6-yl]-5-cyclopropylsulfonyl-furan-2-carboxamide]: the pIC50 (as a rule, the IC50 on a negative log10 scale, so that one unit is a factor of ten) is 5.64 in the data set with HBsAg and 5.89 in the data set with HBeAg. The CC50 (commonly the concentration giving 50% cytotoxicity) at 144 h in data set [1] was more than 100 µM.
As to `Cc1cc(C(=O)NC2CC3(C2)CN(c2nc4cc(Cl)ccc4o2)C3)ccn1` [Example 45, N-[2-(5-chloro-1,3-benzoxazol-2-yl)-2-azaspiro[3.3]heptan-6-yl]-2-methyl-pyridine-4-carboxamide], the pIC50 in the data set with HBsAg is 5.56; with HBeAg it was 5.89. Also, it took 80.1 µM to reach half-maximal cytotoxicity in data set [1] (CC50 at 144 h).
Regarding `COc1ccc(C(=O)NC2CC3(C2)CN(c2nc4cc(Cl)ccc4o2)C3)cn1` [Example 46, N-[2-(5-chloro-1,3-benzoxazol-2-yl)-2-azaspiro[3.3]heptan-6-yl]-6-methoxy-pyridine-3-carboxamide], the pIC50 with HBsAg was 5.32; with HBeAg, 5.54. Moreover, the CC50 at 144 h in data set [1] was more than 100 µM.
Regarding `C[S@](=N)(=O)c1ccc(C(=O)NC2CC3(C2)CN(c2nc4cc(Cl)ccc4o2)C3)o1` [Example 47, N-[2-(5-chloro-1,3-benzoxazol-2-yl)-2-azaspiro[3.3]heptan-6-yl]-5-[(S)-methylsulfonimidoyl]furan-2-carboxamide], the pIC50 in the data set with HBsAg is 5.37; in the data set with HBeAg, 5.64. In data set [1], this compound registered a CC50 at 144 h of more than 100 µM.
As to `CS(=O)(=O)c1ccc(C(=O)NC2CC3(C2)CN(c2nc4cc(Cl)cnc4o2)C3)o1` [Example 48, N-[2-(6-chlorooxazolo[5,4-b]pyridin-2-yl)-2-azaspiro[3.3]heptan-6-yl]-5-methylsulfonyl-furan-2-carboxamide], the negative logarithm of the IC50 (pIC50) is 5.42 with HBsAg and 5.53 with HBeAg. Moreover, in data set [1], the CC50 at 144 h is more than 100 µM.
Turning to `CCOc1cc(C(=O)NC2CC3(C2)CN(c2nc4cc(Cl)ccc4o2)C3)ccn1` [Example 49, N-[2-(5-chloro-1,3-benzoxazol-2-yl)-2-azaspiro[3.3]heptan-6-yl]-2-ethoxy-pyridine-4-carboxamide], the figures for the pIC50 in the data set on HBsAg and in the data set with HBeAg were 5.51 and 5.77, respectively. Also, the CC50 at 144 h in data set [1] was more than 100 µM.
On to `CC(C)CS(=N)(=O)c1ccc(C(=O)NC2CC3(C2)CN(c2nc4cc(Cl)ccc4o2)C3)o1` (stereo not drawn) [Example 50, N-[2-(5-chloro-1,3-benzoxazol-2-yl)-2-azaspiro[3.3]heptan-6-yl]-5-(isobutylsulfonimidoyl)furan-2-carboxamide], for which the pIC50 was 5.78 in the data set with HBsAg and 5.83 with HBeAg. This compound came in with a CC50 at 144 h in data set [1] of 95.4 µM.
For `CS(=O)(=O)Cc1ccc(C(=O)NC2CC3(C2)CN(c2nc4cc(Cl)ccc4o2)C3)o1` [Example 51, N-[2-(5-chloro-1,3-benzoxazol-2-yl)-2-azaspiro[3.3]heptan-6-yl]-5-(methylsulfonylmethyl)furan-2-carboxamide], in that order: 5.65, 5.71 and more than 100 µM.
`CS(=O)(=O)c1cc(C(=O)NC2CC3(C2)CN(c2nc4cc(Cl)ccc4o2)C3)ccn1` [Example 52, N-[2-(5-chloro-1,3-benzoxazol-2-yl)-2-azaspiro[3.3]heptan-6-yl]-2-methylsulfonyl-pyridine-4-carboxamide]: the figures for the pIC50 in the data set on HBsAg and in the data set with HBeAg were 5.82 and 5.90, respectively. In data set [1], this compound showed a cytotoxic concentration (CC50) at 144 h of more than 100 µM.
For the compound `CCS(=O)(=O)c1cc(C(=O)NC2CC3(C2)CN(c2nc4cc(Cl)ccc4o2)C3)ccn1` [Example 53, N-[2-(5-chloro-1,3-benzoxazol-2-yl)-2-azaspiro[3.3]heptan-6-yl]-2-ethylsulfonyl-pyridine-4-carboxamide], the pIC50 was 5.85 in the data set with HBsAg and 6.11 with HBeAg. In data set [1], this compound gave a CC50 at 144 h of 93.2 µM.
`CC(C)CS(=O)(=O)c1ccc(C(=O)NC2CC3(C2)CN(c2nc4cc(Cl)ccc4o2)C3)o1` [Example 54, N-[2-(5-chloro-1,3-benzoxazol-2-yl)-2-azaspiro[3.3]heptan-6-yl]-5-isobutylsulfonyl-furan-2-carboxamide]: the results for the pIC50 in the data set on HBsAg and in the data set on HBeAg were 5.90 and 6.08, respectively. In data set [1], the midpoint of cytotoxicity, the CC50 at 144 h, lay at 84.5 µM.
As for `O=C(NC1CC2(C1)CN(c1nc3cc(Cl)ccc3o1)C2)c1ccnc(C(F)(F)F)c1` [Example 55, N-[2-(5-chloro-1,3-benzoxazol-2-yl)-2-azaspiro[3.3]heptan-6-yl]-2-(trifluoromethyl)pyridine-4-carboxamide], the results for the pIC50 in the data set with HBsAg and in the data set with HBeAg were 5.91 and 6.02, respectively. The compound further showed a CC50 at 144 h in data set [1] of 71.1 µM.
For `CS(=O)(=O)c1ccc(C(=O)NC2CC3(C2)CN(c2nc4cc(Cl)ccc4o2)C3)o1` [Example 56, N-[2-(5-chloro-1,3-benzoxazol-2-yl)-2-azaspiro[3.3]heptan-6-yl]-5-methylsulfonyl-furan-2-carboxamide], in that order: 5.91, 6.00 and more than 100 µM.
Turning to `N=S(=O)(CC1CC1)c1ccc(C(=O)NC2CC3(C2)CN(c2nc4cc(Cl)ccc4o2)C3)o1` (stereo not drawn) [Example 57, N-[2-(5-chloro-1,3-benzoxazol-2-yl)-2-azaspiro[3.3]heptan-6-yl]-5-(cyclopropylmethylsulfonimidoyl)furan-2-carboxamide], the figures for the pIC50 in the data set on HBsAg and in the data set with HBeAg were 6.00 and 6.02, respectively. Also, the CC50 at 144 h in data set [1] was more than 100 µM.
As to `CCS(=O)(=O)c1ccc(C(=O)NC2CC3(C2)CN(c2nc4cc(Cl)ccc4o2)C3)o1` [Example 58, N-[2-(5-chloro-1,3-benzoxazol-2-yl)-2-azaspiro[3.3]heptan-6-yl]-5-ethylsulfonyl-furan-2-carboxamide], the values for the pIC50 in the data set on HBsAg and in the data set on HBeAg were 6.04 and 6.09, respectively. Also, the CC50 at 144 h in data set [1] is more than 100 µM.
The like results for `O=C(NC1CC2(C1)CN(c1nc3cc(Cl)ccc3o1)C2)c1ccc(S(=O)(=O)NC2CC2)o1` [Example 59, N-[2-(5-chloro-1,3-benzoxazol-2-yl)-2-azaspiro[3.3]heptan-6-yl]-5-(cyclopropylsulfamoyl)furan-2-carboxamide] were, in that order, 5.55, 5.84 and more than 10 µM.
The like results for `O=C(NC1CC2(C1)CN(c1nc3cc(Cl)ccc3o1)C2)c1ccc(S(=O)(=O)NC2CC(F)(F)C2)o1` [Example 60, N-[2-(5-chloro-1,3-benzoxazol-2-yl)-2-azaspiro[3.3]heptan-6-yl]-5-[(3,3-difluorocyclobutyl)sulfamoyl]furan-2-carboxamide] were, in that order, 5.60, 5.59 and more than 10 µM.
The like results for `O=C(NC1CC2(C1)CN(c1nc3cc(Cl)ccc3o1)C2)c1ccc([S+]([O-])CC2CC2)o1` (stereo not drawn) [Example 61, N-[2-(5-chloro-1,3-benzoxazol-2-yl)-2-azaspiro[3.3]heptan-6-yl]-5-(cyclopropylmethylsulfinyl)furan-2-carboxamide] were, in that order, 6.72, 6.40 and 96 µM.
Consider `CC(C)C[S+]([O-])c1ccc(C(=O)NC2CC3(C2)CN(c2nc4cc(Cl)ccc4o2)C3)o1` (stereo not drawn) [Example 62, N-[2-(5-chloro-1,3-benzoxazol-2-yl)-2-azaspiro[3.3]heptan-6-yl]-5-isobutylsulfinyl-furan-2-carboxamide], for which the pIC50 is 6.35 with HBsAg and 6.41 with HBeAg. Further, it took 77.4 µM to reach half-maximal cytotoxicity in data set [1] (CC50 at 144 h).
Regarding `C[S@@](=N)(=O)c1ccc(C(=O)NC2CC3(C2)CN(c2nc4cc(Cl)ccc4o2)C3)o1` [Example 63, N-[2-(5-chloro-1,3-benzoxazol-2-yl)-2-azaspiro[3.3]heptan-6-yl]-5-[(R)-methylsulfonimidoyl]furan-2-carboxamide], the negative logarithm of the IC50 (pIC50) is 5.61 in the data set with HBsAg and 5.85 with HBeAg. In data set [1], this compound yielded a half-maximal cytotoxic concentration (CC50) at 144 h of more than 100 µM.
Take `C[S+]([O-])c1ccc(C(=O)NC2CC3(C2)CN(c2nc4cc(Cl)ccc4o2)C3)o1` (stereo not drawn) [Example 64, N-[2-(5-chloro-1,3-benzoxazol-2-yl)-2-azaspiro[3.3]heptan-6-yl]-5-methylsulfinyl-furan-2-carboxamide]: the pIC50 is 5.60 with HBsAg and 5.81 with HBeAg. Besides, the CC50 at 144 h in data set [1] was more than 100 µM.
